Target: T1, CXCR2 (Homo sapiens, UniProt P25025)
T1 construct: endogenous in cells; host or cells: neutrophils (isolated primary cells)
T1 sequence (P25025 1-360): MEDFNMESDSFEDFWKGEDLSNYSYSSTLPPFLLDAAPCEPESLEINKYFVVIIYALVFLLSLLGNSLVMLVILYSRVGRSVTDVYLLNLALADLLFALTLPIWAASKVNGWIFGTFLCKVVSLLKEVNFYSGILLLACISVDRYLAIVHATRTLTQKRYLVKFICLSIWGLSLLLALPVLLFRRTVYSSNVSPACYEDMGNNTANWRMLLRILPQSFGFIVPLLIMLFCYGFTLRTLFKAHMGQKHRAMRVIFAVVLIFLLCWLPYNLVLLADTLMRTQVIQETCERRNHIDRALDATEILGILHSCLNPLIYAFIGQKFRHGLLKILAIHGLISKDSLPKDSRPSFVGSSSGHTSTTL
Assay: Sequential calcium flux in neutrophils to IL-8 after SB225002 pretreatment
Assay type: cell-based
Conditions: 1 pM SB225002; IL-8 1.2 μM and 1.2 μM or 600 nM and 1.2 μM; p<0.05
Experimental: Calcium flux in neutrophils in response to IL-8 was measured as previously described (Mahon M. J., et al. 2004 J Biol Chem 279:23550-8). Briefly, isolated cells (˜10^7/ml) were transferred into a balanced salt solution (127 mM NaCl, 3.8 mM KCl, 1.2 mM KH2PO4, 1.2 mM CaCl2, 0.9 mM MgCl2, 5 mM glucose, and 10 mM HEPES, pH 7.4), incubated for 45 min at room temperature with 1.25 μM Fura-2 acetoxymethyl ester (Molecular Probes, Eugene, Oreg.), washed with the balanced salt solution, and unloaded for 15 min at room temperature. […] Calcium flux in response to indicated concentrations of IL-8 (Akahoshi T., et al. 1994 Lymphokine Cytokine Res 13:113-6) was measured by fluorescence of cells excited at 340 and 380 nm using a PTI Deltascan dual-wavelength fluorimeter (Photon Technologies Incorporated, Lawrenceville, N.J.), observed through a Nikon Diaphot 200 microscope (Melville, N.Y.) and Sensys charge-coupled device camera (Photometrics, Ltd., Tucson, Ariz.), and analyzed using the Poenie-Tsien ratio with Imagemaster 2 software (Photon Technologies Incorporated). Signaling responses to IL-8 at designated concentrations were calibrated against maximal calcium flux as determined by treatment with 5 μM ionomycin (Sigma). CXCR2 expression on neutrophils pre- and post-exposure to 120 nM, 1.2 μM and 2.4 μM IL-8 was determined using PE-labelled anti-CXCR2 IgGl antibody (R & D systems). […]

Compound: O=C(Nc1ccc([N+](=O)[O-])cc1O)Nc1ccccc1Br [SB225002]
- sequential peaks of calcium flux following IL-8 stimulation: significantly reduced

Source: US10406217B2, “Antifugetactic agents for the treatment of cancers” (The General Hospital Corporation, priority 2004, dated 2019)
